Laboratory results taken from publication PMC4170777, “Effect of Temperature on Xylanase II from Trichoderma reesei QM 9414: A Calorimetric, Catalytic, and Conformational Study” (Enzyme Research, 2014).

Molecular target: T1, xylanase II (XYN II) (Trichoderma reesei, UniProt P36217)
T1 construct: gene xyn2; native secreted enzyme purified from wheat-straw culture supernatant of T. reesei QM 9414
Assay: differential scanning calorimetry
Type: binding
Details: 0.4 M GL, 1 mg/mL protein, 0.1 M sodium citrate pH 5, scan rate 15°C/h; absolute Tm, not a shift; control without GL 57.27°C (irreversible)
Text: differential scanning calorimetry on xylanase II (XYN II)

T1 sequence (P36217 34-223): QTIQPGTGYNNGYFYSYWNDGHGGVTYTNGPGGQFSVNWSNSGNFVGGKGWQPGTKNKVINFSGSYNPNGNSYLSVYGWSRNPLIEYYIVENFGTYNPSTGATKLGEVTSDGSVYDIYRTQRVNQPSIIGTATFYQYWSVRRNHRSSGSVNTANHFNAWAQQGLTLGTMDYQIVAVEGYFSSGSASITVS

O=C1O[C@H](CO)[C@@H](O)[C@H](O)[C@H]1O (mixture of isomers) [GL, D-glucono-1,5-lactone]
Global: 54.1 °C
